{"source": "patent US11111242B2", "about": "“Pyrrolo[2,3-d]pyrimidinyl, pyrrolo[2,3-b]pyrazinyl and pyrrolo[2,3-d]pyridinyl acrylamides” (Pfizer Inc., priority 2013, dated 2021)", "key": {"[1]": {"test_system": "IL-15 induced STAT5 phosphorylation in Human Whole Blood (total lymphocytes)", "assay": "HWB IL-15 Induced STAT5 Phosphorylation Assay", "format": "cell-based", "conditions": "Lymphocyte, IL-15 stimulated, read-out: HWB-IL15-pSTAT5 IC50", "procedure": "HWB IL-15 Induced STAT5 Phosphorylation Assay\nAfter mixing and incubating for 45 minutes at 37° C., 5 μl D-PBS (unstimulated control) or 20× stocks of 5 μl human IL-15 (final concentration is 50 ng/ml) were added, and mixed three times. After incubating 15 minutes at 37° C., 1× Lyse/Fix Buffer (BD Phosflow 5× Lyse/Fix Buffer) was added to all wells at 1000 μl/well, then incubated for 20 minutes at 37° C. and spun 5 mins at 1200 rpm. […] Following incubating at 4° C. over night, all the samples were transferred to 96-well polypropylene U-bottom plate, and checked by flow cytometry gated on total lymphocytes."}, "[2]": {"test_system": "IL-15 induced P-STAT5 in human PBMC (total lymphocytes)", "assay": "PBMC IL-15 Induced P-STAT5", "format": "cell-based", "conditions": "IL-15 stimulated, read-out: PBMC IL15-pSTAT5 IC50", "in_short": "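Thawed human PBMC in RPMI, preincubated 30 min at 37 °C, then IL-15 stimulated. Cells methanol-permeabilized (90%, on ice 20 min) and stained for phospho-STAT5. Read by flow cytometry, gated on total lymphocytes.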"}}, "note": "Read-outs that look alike come from different tables or passages of the source.", "data": [{"smiles": "C=CC(=O)N1CCC(Nc2cnc3[nH]cc(C(=O)N[C@H](CC)CC#N)c3n2)CC1", "note": "[Example 263, 2-[(1-acryloylpiperidin-4-yl)amino]-N-[(2R)-1-cyanobutan-2-yl]-5H-pyrrolo[2,3-b]pyrazine-7-carboxamide]", "values": [{"measurement": "IC50", "setting": "[1]", "value": 431, "unit": "nM"}, {"measurement": "IC50", "setting": "[2]", "value": 74.3, "unit": "nM"}]}, {"smiles": "C=CC(=O)N1CCC(Nc2cnc3[nH]cc(C(=O)N[C@@H](C)CC)c3n2)CC1", "note": "[Example 285, 2-[(1-acryloylpiperidin-4-yl)amino]-N-[(2S)-butan-2-yl]-5H-pyrrolo[2,3-b]pyrazine-7-carboxamide]", "values": [{"measurement": "IC50", "setting": "[1]", "value": 373, "unit": "nM"}, {"measurement": "IC50", "setting": "[2]", "value": 31.4, "unit": "nM"}]}, {"smiles": "C=CC(=O)N1C[C@@H](O)C[C@@H](Nc2ncnc3[nH]ccc23)C1", "note": "[Example 17, 1-((3R,5S)-3-(7H-Pyrrolo[2,3-d]pyrimidin-4-ylamino)-5-hydroxypiperidin-1-yl)prop-2-en-1-one]", "values": [{"measurement": "IC50", "setting": "[1]", "value": 210, "unit": "nM"}, {"measurement": "IC50", "setting": "[2]; Homo sapiens, PBMC", "value": 71.8, "unit": "nM"}]}, {"smiles": "C=CC(=O)N1C[C@H](C#N)C[C@@H](Nc2ncnc3[nH]ccc23)C1", "note": "[Example 6, (3R,5R)-5-((7H-pyrrolo[2,3-d]pyrimidin-4-yl)amino)-1-acryloylpiperidine-3-carbonitrile]", "values": [{"measurement": "IC50", "setting": "[1]", "value": 870, "unit": "nM"}, {"measurement": "IC50", "setting": "[2]", "value": 45.8, "unit": "nM"}]}, {"smiles": "C=CC(=O)N1C[C@H](F)C[C@@H](Nc2ncnc3[nH]ccc23)C1", "note": "[Example 10, 1-((3R,5R)-3-((7H-pyrrolo[2,3-d]pyrimidin-4-yl)amino)-5-fluoropiperidin-1-yl)prop-2-en-1-one]", "values": [{"measurement": "IC50", "setting": "[1]", "value": 461, "unit": "nM"}, {"measurement": "IC50", "setting": "[2]; Homo sapiens, PBMC", "value": 133, "unit": "nM"}]}, {"smiles": "C=CC(=O)N1CC(Nc2cnc3[nH]cc(C(=O)NC(C)C)c3n2)C1", "note": "[Example 188, 2-[(1-acryloylazetidin-3-yl)amino]-N-(propan-2-yl)-5H-pyrrolo[2,3-b]pyrazine-7-carboxamide]", "values": [{"measurement": "IC50", "setting": "[1]", "value": 246, "unit": "nM"}, {"measurement": "IC50", "setting": "[2]; Homo sapiens, PBMC", "value": 155, "unit": "nM"}]}, {"smiles": "C=CC(=O)N1CCC(Nc2cnc3[nH]cc(C(=O)NC4CCCC(F)(F)C4)c3n2)CC1", "note": "(centres unmarked) [Example 236, 2-[(1-acryloylpiperidin-4-yl)amino]-N-(3,3-difluorocyclohexyl)-5H-pyrrolo[2,3-b]pyrazine-7-carboxamide]", "values": [{"measurement": "IC50", "setting": "[1]", "value": 438, "unit": "nM"}, {"measurement": "IC50", "setting": "[2]", "value": 142, "unit": "nM"}]}, {"smiles": "C=CC(=O)N1CCC(Nc2cnc3[nH]cc(C(=O)N[C@@H]4CCC[C@@H]4F)c3n2)CC1", "note": "[Example 251, 2-[(1-acryloylpiperidin-4-yl)amino]-N-[(1R,2S)-2-fluorocyclopentyl]-5H-pyrrolo[2,3-b]pyrazine-7-carboxamide]", "values": [{"measurement": "IC50", "setting": "[1]", "value": 810, "unit": "nM"}, {"measurement": "IC50", "setting": "[2]", "value": 73.9, "unit": "nM"}]}, {"smiles": "C=CC(=O)N1CCC(Nc2cnc3[nH]cc(-c4ccnc(F)c4)c3n2)CC1", "note": "[Example 211, 1-(4-{[7-(2-fluoropyridin-4-yl)-5H-pyrrolo[2,3-b]pyrazin-2-yl]amino}piperidin-1-yl)prop-2-en-1-one]", "values": [{"measurement": "IC50", "setting": "[1]", "value": 4330, "unit": "nM"}, {"measurement": "IC50", "setting": "[2]", "value": 206, "unit": "nM"}]}, {"smiles": "C=CC(=O)N1C[C@H](Nc2ncnc3[nH]cc(C#N)c23)CC[C@@H]1C", "note": "[Example 163, 4-{[(3R,6S)-1-Acryloyl-6-methylpiperidin-3-yl]amino}-7H-pyrrolo[2,3-d]pyrimidine-5-carbonitrile]", "values": [{"measurement": "IC50", "setting": "[1]", "value": 522, "unit": "nM"}, {"measurement": "IC50", "setting": "[2]; Homo sapiens, PBMC", "value": 109, "unit": "nM"}]}, {"smiles": "C=CC(=O)N1CCC(Nc2cnc3[nH]cc(C(=O)N[C@H](C)COC)c3n2)CC1", "note": "[Example 268, 2-[(1-acryloylpiperidin-4-yl)amino]-N-[(2R)-1-methoxypropan-2-yl]-5H-pyrrolo[2,3-b]pyrazine-7-carboxamide]", "values": [{"measurement": "IC50", "setting": "[1]", "value": 263, "unit": "nM"}, {"measurement": "IC50", "setting": "[2]; Homo sapiens, PBMC", "value": 43.4, "unit": "nM"}]}, {"smiles": "C=CC(=O)N1CCC(Nc2cnc3[nH]cc(C(=O)NCCC#N)c3n2)CC1", "note": "[Example 261, 2-[(1-acryloylpiperidin-4-yl)amino]-N-(2-cyanoethyl)-5H-pyrrolo[2,3-b]pyrazine-7-carboxamide]", "values": [{"measurement": "IC50", "setting": "[1]", "value": 215, "unit": "nM"}, {"measurement": "IC50", "setting": "[2]", "value": 214, "unit": "nM"}]}, {"smiles": "C=CC(=O)N1CCC(Nc2cnc3[nH]cc(-c4ccnc(C)c4)c3n2)CC1", "note": "[Example 201, 1-(4-{[7-(2-methylpyridin-4-yl)-5H-pyrrolo[2,3-b]pyrazin-2-yl]amino}piperidin-1-yl)prop-2-en-1-one]", "values": [{"measurement": "IC50", "setting": "[1]", "value": 3480, "unit": "nM"}, {"measurement": "IC50", "setting": "[2]", "value": 262, "unit": "nM"}]}, {"smiles": "C=CC(=O)N1C[C@H](O)C[C@@H](Nc2ncnc3[nH]ccc23)C1", "note": "[Example 60, 1-((3R,5R)-3-((7H-Pyrrolo[2,3-d]pyrimidin-4-yl)amino)-5-hydroxypiperidin-1-yl)prop-2-en-1-one]", "values": [{"measurement": "IC50", "setting": "[1]", "value": 2780, "unit": "nM"}, {"measurement": "IC50", "setting": "[2]; Homo sapiens, PBMC", "value": 2470, "unit": "nM"}]}, {"smiles": "C=CC(=O)N1CCC(Nc2cnc3[nH]cc(C(=O)N[C@H](C)CC)c3n2)CC1", "note": "[Example 289, 2-[(1-acryloylpiperidin-4-yl)amino]-N-[(2R)-butan-2-yl]-5H-pyrrolo[2,3-b]pyrazine-7-carboxamide]", "values": [{"measurement": "IC50", "setting": "[1]", "value": 106, "unit": "nM"}, {"measurement": "IC50", "setting": "[2]", "value": 37.5, "unit": "nM"}]}, {"smiles": "C=CC(=O)N1CCC(Nc2cnc3[nH]cc(C(=O)NCC4CC(F)(F)C4)c3n2)CC1", "note": "[Example 238, 2-[(1-acryloylpiperidin-4-yl)amino]-N-[(3,3-difluorocyclobutyl)methyl]-5H-pyrrolo[2,3-b]pyrazine-7-carboxamide]", "values": [{"measurement": "IC50", "setting": "[1]", "value": 615, "unit": "nM"}, {"measurement": "IC50", "setting": "[2]; Homo sapiens, PBMC", "value": 181, "unit": "nM"}]}, {"smiles": "C=CC(=O)N1CCC(Nc2cnc3[nH]cc(C(=O)NC45CC(C4)C5)c3n2)CC1", "note": "[Example 281, 2-[(1-acryloylpiperidin-4-yl)amino]-N-(bicyclo[1.1.1]pent-1-yl)-5H-pyrrolo[2,3-b]pyrazine-7-carboxamide]", "values": [{"measurement": "IC50", "setting": "[1]", "value": 489, "unit": "nM"}, {"measurement": "IC50", "setting": "[2]; Homo sapiens, PBMC", "value": 31.5, "unit": "nM"}]}, {"smiles": "C=CC(=O)N1CCC[C@@H](Nc2ncnc3[nH]cc(C)c23)C1", "note": "[Example 43, 1-{(3R)-3-[(5-methyl-7H-pyrrolo[2,3-d]pyrimidin-4-yl)amino]piperidin-1-yl}prop-2-en-1-one]", "values": [{"measurement": "IC50", "setting": "[1]", "value": 463, "unit": "nM"}, {"measurement": "IC50", "setting": "[2]", "value": 116, "unit": "nM"}]}, {"smiles": "C=CC(=O)N1CCC(Nc2cnc3[nH]cc(C(=O)NCC(F)(F)F)c3n2)CC1", "note": "[Example 273, 2-[(1-acryloylpiperidin-4-yl)amino]-N-(2,2,2-trifluoroethyl)-5H-pyrrolo[2,3-b]pyrazine-7-carboxamide]", "values": [{"measurement": "IC50", "setting": "[1]", "value": 214, "unit": "nM"}, {"measurement": "IC50", "setting": "[2]", "value": 56.7, "unit": "nM"}]}, {"smiles": "C=CC(=O)N1CCC(Nc2cnc3[nH]cc(C(=O)NC4CCCCC4)c3n2)CC1", "note": "[Example 278, 2-[(1-acryloylpiperidin-4-yl)amino]-N-cyclohexyl-5H-pyrrolo[2,3-b]pyrazine-7-carboxamide]", "values": [{"measurement": "IC50", "setting": "[1]", "value": 362, "unit": "nM"}, {"measurement": "IC50", "setting": "[2]", "value": 57.4, "unit": "nM"}]}, {"smiles": "C=CC(=O)N1CCC(Nc2cnc3[nH]cc(C(=O)NCC(C)C)c3n2)CC1", "note": "[Example 272, 2-[(1-acryloylpiperidin-4-yl)amino]-N-(2-methylpropyl)-5H-pyrrolo[2,3-b]pyrazine-7-carboxamide]", "values": [{"measurement": "IC50", "setting": "[1]", "value": 259, "unit": "nM"}, {"measurement": "IC50", "setting": "[2]; Homo sapiens, PBMC", "value": 72.3, "unit": "nM"}]}, {"smiles": "C=CC(=O)N1CCC(Nc2cnc3[nH]cc(C(=O)NCC(C)(F)F)c3n2)CC1", "note": "[Example 282, 2-[(1-acryloylpiperidin-4-yl)amino]-N-(2,2-difluoropropyl)-5H-pyrrolo[2,3-b]pyrazine-7-carboxamide]", "values": [{"measurement": "IC50", "setting": "[1]", "value": 432, "unit": "nM"}, {"measurement": "IC50", "setting": "[2]", "value": 71.7, "unit": "nM"}]}, {"smiles": "C=CC(=O)N1C[C@H](Nc2ccnc3[nH]cc(C#N)c23)CC[C@@H]1C", "note": "[Example 165, 4-{[(3R,6S)-1-Acryloyl-6-methylpiperidin-3-yl]amino}-1H-pyrrolo[2,3-b]pyridine-3-carbonitrile]", "values": [{"measurement": "IC50", "setting": "[1]", "value": 380, "unit": "nM"}, {"measurement": "IC50", "setting": "[2]; Homo sapiens, PBMC", "value": 40.6, "unit": "nM"}]}, {"smiles": "C=CC(=O)N1CC[C@H](C)[C@@H](Nc2ncnc3[nH]ccc23)C1", "note": "[Example 11, 1-((3R,4S)-3-((7H-pyrrolo[2,3-d]pyrimidin-4-yl)amino)-4-methylpiperidin-1-yl)prop-2-en-1-one]", "values": [{"measurement": "IC50", "setting": "[1]", "value": 363, "unit": "nM"}, {"measurement": "IC50", "setting": "[2]; Homo sapiens, PBMC", "value": 97.9, "unit": "nM"}]}, {"smiles": "C=CC(=O)N1CCC(Nc2cnc3[nH]cc(C(=O)NCCOC)c3n2)CC1", "note": "[Example 275, 2-[(1-acryloylpiperidin-4-yl)amino]-N-(2-methoxyethyl)-5H-pyrrolo[2,3-b]pyrazine-7-carboxamide]", "values": [{"measurement": "IC50", "setting": "[1]", "value": 389, "unit": "nM"}, {"measurement": "IC50", "setting": "[2]", "value": 149, "unit": "nM"}]}]}
